From publication PMC6060383, “Synthesis and pharmacological evaluation of novel isoquinoline N-sulphonylhydrazones designed as ROCK inhibitors” (Journal of Enzyme Inhibition and Medicinal Chemistry, 2018)
In brackets after ≈: the same amount, converted by molar mass. Entries after “also recorded” stand apart in the source; their conditions may differ.

Tests used:
[1] = biological target: T1, ROCK2 human recombinant enzyme (Homo sapiens, UniProt O75116); test: ROCK2 inhibition assay (Eurofins-Cerep, phosphorylation of Ulight-RRRSLLE substrate); assay type: biochemical; conditions: for inhibition at 3 µM: screening concentration 3 μM, average of two experiments; for IC50: human recombinant ROCK2, five-point assay, mean of two experiments
T1 construct: purchased EUROFINS-CEREP France (contract assay, study numbers 100033685 and 100040481); host or cells: Sf21 insect cells
Method: (§1) The analysis was performed using software developed at Cerep (Hill software) and GraphPad Prism® 5.0 (GraphPad Software, Inc., San Diego, CA) and validated through comparison with results generated using the SigmaPlot 4.0 software.
(§2) Prior to this assay, we evaluated the solubility of these compounds in water (buffer pH 7.4) to ensure that the inhibition percentages were not influenced by the precipitation of the compounds under test conditions.

[2] = biological target: T2, ROCK1 human recombinant enzyme (Homo sapiens, UniProt Q13464); test: ROCK1 inhibition assay (Eurofins-Cerep, phosphorylation of Ulight-RRRSLLE substrate); assay type: biochemical; conditions: for inhibition at 3 µM: screening concentration 3 μM, average of two experiments; for IC50: human recombinant ROCK1, five-point assay, mean of two experiments
T2 construct: purchased EUROFINS-CEREP France (contract assay, study numbers 100033685 and 100040481); host or cells: Sf9 insect cells
Method: as §1, §2

[3] = Water solubility assay (UV spectrophotometric method); assay type: physicochemical; conditions: aqueous buffer, thermodynamic from solid, water (buffer pH 7.4), stirring 4 h at 37 °C
Method: The solubility assay was performed considering the absorptivity of compounds under ultraviolet spectroscopy as described by Schneider et al.[20] Assay wavelength was determined through λmax characteristic of each compound. Saturated aqueous solutions were prepared (0.8–1.0 mg/mL) and kept under stirring for 4 h at 37 °C. The supernatant was filtered in […] filters and transferred to a quartz cuvette (10 mm) for spectra acquisition. Solubility was determined by linear regression used as Excel graph plots, solutions were prepared by dilutions of the original solution in methanol. Data were collected in triplicate and the mean values were used to create the graph plots. The correlation coefficient (R^2) values were between 0.9982 and 1.
The N-sulphonylhydrazone derivatives 5a–h were evaluated for their ability to inhibit both ROCK1 and ROCK2 isoforms by measuring the phosphorylation of the Ulight-RRRSLLE substrate using human recombinant enzymes expressed in Sf9[23] and Sf21^24 cells, respectively. Prior to this assay, we evaluated the solubility of these compounds in water (buffer pH 7.4) to ensure that the inhibition percentages were not influenced by the precipitation of the compounds under test conditions. The enzymatic assay was initially performed at a screening concentration of 3 μM, which is capable of guaranteeing the solubility of most of the compounds, and the obtained results are shown in Table 2.

MDA-MB 231 cells [4] = test: Cell-based scratch assay (cell migration); set-up: species or system human; conditions: 10 or 30 μM, 24 h
Method: (§3) The human mammary gland/breast epithelial cell line MDA-MB 231 was obtained from the American Type Culture Collection (ATCC® HTB-26™) and this use was approved by the Ethics Committee for Animal Care and Use in Scientific Research from the Federal University of Rio de Janeiro. Cells were routinely grown in RPMI medium containing 10% foetal bovine serum (FBS), 1% L-glutamine and 1% penicillin-streptomycin, in a humidified 5% CO2 atmosphere at 37 °C. Cells were cultured up to 70–100% confluence and then some cultures were treated with the compounds at different concentrations for 24 or 48 h. All cell culture reagents were purchased from Invitrogen (São Paulo, Brazil).
Cells were cultured in 24-well culture plates for 24 h up to 90–100% confluence. Scratched wound lines were created with the help of a 200 μl micropipette tip. […] Images were acquired with an Olympus DP71 digital camera (Olympus, Japan) and the wound area was quantified using Fiji software (based on ImageJ, http://imageJ.nih.gov/ij/) from three different experiments.
The functions of Rho-kinase include the regulation of cellular contraction, motility, morphology, polarity, division, and gene expression. Therefore, we performed a cell-based scratch assay followed by the quantification of the wounded area to analyse whether compounds 5b (LASSBio-2020) and 11 (LASSBio-2065) altered cell migration. […]

IKK-β = biological target: T3, IKK-β (Homo sapiens, UniProt O14920); test: IKK-β inhibition screening; assay type: biochemical; conditions: screening concentration of 10 μM; data not shown
T3 sequence (O14920 1-756): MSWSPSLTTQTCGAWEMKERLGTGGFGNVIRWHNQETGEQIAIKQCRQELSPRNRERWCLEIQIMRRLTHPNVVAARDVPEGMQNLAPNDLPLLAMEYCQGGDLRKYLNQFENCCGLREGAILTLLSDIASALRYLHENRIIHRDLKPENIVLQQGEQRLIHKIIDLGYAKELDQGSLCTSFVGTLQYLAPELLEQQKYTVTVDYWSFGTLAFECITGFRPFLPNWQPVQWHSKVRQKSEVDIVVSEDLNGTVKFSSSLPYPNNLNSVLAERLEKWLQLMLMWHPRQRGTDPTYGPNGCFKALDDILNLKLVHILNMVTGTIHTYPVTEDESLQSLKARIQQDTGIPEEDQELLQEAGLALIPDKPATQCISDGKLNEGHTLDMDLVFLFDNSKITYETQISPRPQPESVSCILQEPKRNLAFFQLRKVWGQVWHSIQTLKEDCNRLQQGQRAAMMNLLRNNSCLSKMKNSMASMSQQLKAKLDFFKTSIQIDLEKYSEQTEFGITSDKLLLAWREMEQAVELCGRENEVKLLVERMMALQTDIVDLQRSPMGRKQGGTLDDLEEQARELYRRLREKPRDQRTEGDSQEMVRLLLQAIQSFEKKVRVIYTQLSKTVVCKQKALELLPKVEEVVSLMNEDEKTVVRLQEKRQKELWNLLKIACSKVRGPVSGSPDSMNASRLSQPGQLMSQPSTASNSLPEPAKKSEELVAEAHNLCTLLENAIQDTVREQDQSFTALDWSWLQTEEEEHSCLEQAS
Description: Furthermore, considering that 2 (LASSBio-1524) was used in the structural design of this new family of ROCK inhibitors we also investigated the ability of 5b (LASSBio-2020) and 11 (LASSBio-2065) to inhibit IKK-β.

MDA-MB 231 cells [5] = test: Plasma membrane integrity assay (LDH); assay type: cell-based, human; conditions: 0.1 to 30 µM, 24 and 48 h
Method: as §3
To measure plasma membrane integrity, we assayed serum lactate dehydrogenase (LDH) levels and calculated percentages of LDH release to the medium. LDH activity was measured spectrophotometrically using a commercial kit (Doles, Goiás, Brazil). […] Then, 10 μl of NAD were added and absorbance intensities were measured in a microplate reader (FlexStation® 3 Reader, Molecular Devices) at 490 nm. The percentage of LDH release was calculated by ([LDH] sample ×100)/total [LDH]. […]
We also analysed the plasma membrane integrity by measuring the serum lactate dehydrogenase (LDH) levels in the culture medium to confirm the cell viability data. […]

[6] = Chemical stability study (pH 2.0 and pH 7.4 buffers); assay type: physicochemical; conditions: 37 °C
Method: Two microliters ([…]) of a concentrated solution of the compound under examination (40 mM stock solution solubilized in DMSO) and 248 μL of acid (0.2 M potassium chloride and 0.2 M HCl; pH 2.0) or neutral (phosphate dibasic, pH 7.4) buffer were added to a 2 ml Eppendorf microtube. After vortexing, the mixture was placed in a water bath at 37 °C under vigorous stirring for 0, 30, 60, 120, and 240 min. After each reaction, 248 μL of basic buffer (phosphate buffer, pH 8.4) was added to neutralize the pH of the medium in the experiments using acidic buffer. The compound was extracted using 1 ml of acetonitrile followed by vigorous vortexing and freezing of the aqueous phase (−10 °C). The organic phase was separated, filtered, and analysed using an HPLC-PDA (acetonitrile/water […], 0.05% of TFA).
Due to the possible chemical instability of the imine functional group present in the N-sulphonylhydrazone framework, the stability profiles of compounds 5b (LASSBio-2020) and 11 (LASSBio-2065) were determined. The study was conducted under two conditions, pH 2.0 and pH 7.4, to mimic the acidic stomach and the neutral plasma environments, respectively. The compounds were examined in the presence of acid (pH 2) and neutral (pH 7.4) buffers with stirring for 240 min at a controlled temperature (37 °C).

[7] = ROCK inhibition assays, 1 to 50 µM

T1 sequence (O75116 1-543 limits assumed): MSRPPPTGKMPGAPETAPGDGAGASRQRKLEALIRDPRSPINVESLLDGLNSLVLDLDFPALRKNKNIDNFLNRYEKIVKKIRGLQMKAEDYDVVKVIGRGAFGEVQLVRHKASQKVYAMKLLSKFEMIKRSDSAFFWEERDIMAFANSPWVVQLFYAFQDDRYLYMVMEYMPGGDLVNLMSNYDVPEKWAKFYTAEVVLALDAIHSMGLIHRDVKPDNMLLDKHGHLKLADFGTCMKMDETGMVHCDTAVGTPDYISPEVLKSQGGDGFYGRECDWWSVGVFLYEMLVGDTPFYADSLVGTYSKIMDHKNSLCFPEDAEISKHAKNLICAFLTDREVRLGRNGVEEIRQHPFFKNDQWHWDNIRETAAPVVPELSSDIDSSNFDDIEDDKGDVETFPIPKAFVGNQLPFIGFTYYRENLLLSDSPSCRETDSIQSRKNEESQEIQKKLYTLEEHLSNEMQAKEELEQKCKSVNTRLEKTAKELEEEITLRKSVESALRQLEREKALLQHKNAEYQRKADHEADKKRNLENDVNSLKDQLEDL
T2 sequence (Q13464 whole entry): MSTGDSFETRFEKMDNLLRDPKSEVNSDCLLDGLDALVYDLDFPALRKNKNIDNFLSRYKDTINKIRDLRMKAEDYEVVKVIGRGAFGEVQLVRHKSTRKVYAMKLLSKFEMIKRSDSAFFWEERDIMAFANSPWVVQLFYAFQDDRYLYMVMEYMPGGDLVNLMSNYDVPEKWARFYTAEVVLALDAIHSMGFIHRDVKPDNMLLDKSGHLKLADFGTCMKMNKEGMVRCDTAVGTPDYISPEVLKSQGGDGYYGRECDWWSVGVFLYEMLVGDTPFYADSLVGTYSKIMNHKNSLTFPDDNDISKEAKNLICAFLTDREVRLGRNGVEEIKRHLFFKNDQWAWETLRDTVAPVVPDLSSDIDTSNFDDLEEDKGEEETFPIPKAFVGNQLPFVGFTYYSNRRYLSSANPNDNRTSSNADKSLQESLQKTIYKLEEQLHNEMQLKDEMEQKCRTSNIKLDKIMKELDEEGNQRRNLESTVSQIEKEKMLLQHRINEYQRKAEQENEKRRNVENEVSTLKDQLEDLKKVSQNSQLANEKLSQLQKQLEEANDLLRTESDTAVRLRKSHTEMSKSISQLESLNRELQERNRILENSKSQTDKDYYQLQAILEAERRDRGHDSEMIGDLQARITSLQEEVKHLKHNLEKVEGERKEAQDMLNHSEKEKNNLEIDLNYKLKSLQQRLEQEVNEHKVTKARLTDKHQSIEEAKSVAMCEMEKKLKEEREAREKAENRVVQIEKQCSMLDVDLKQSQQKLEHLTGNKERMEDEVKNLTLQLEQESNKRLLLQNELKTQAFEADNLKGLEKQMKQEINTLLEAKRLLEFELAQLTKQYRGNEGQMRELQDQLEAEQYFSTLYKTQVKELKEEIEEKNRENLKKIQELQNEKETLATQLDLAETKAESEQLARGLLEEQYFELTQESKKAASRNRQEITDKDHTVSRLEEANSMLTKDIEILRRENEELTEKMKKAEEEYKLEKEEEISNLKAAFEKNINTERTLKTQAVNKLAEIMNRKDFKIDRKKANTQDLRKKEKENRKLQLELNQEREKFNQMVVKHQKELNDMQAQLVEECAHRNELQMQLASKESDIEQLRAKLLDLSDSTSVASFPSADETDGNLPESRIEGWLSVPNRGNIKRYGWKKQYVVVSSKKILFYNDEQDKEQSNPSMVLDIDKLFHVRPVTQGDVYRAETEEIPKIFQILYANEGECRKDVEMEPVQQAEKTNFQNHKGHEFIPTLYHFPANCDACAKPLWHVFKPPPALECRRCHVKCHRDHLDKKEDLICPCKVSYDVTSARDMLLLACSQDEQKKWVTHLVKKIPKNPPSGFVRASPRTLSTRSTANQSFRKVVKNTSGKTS

| inhibition at 3 µM [1] [%] | inhibition at 3 µM [2] [%] | solubility at 4 h [3] [µM] | melting point [°C] | SMILES | other results |
| --- | --- | --- | --- | --- | --- |
| -9.1 | 4.6 | 4.3 (≈ 1.58 µg/mL) | 173 | CC(=O)Nc1ccc(/C=N/NS(=O)(=O)c2cccc3cnccc23)cc1 [Compound 5e, (E)-N-(4-((2-(isoquinolin-5-ylsulphonyl)hydrazono)methyl)phenyl)acetamide] | – |
| 2.4 | -1.1 | < 0.5 | 166 | O=S(=O)(N/N=C/c1ccc(-c2ccccc2)cc1)c1cccc2cnccc12 [Compound 5g, (E)-N′-([1,1'-biphenyl]-4-ylmethylene)isoquinoline-5-sulphonohydrazide] | – |
| 0.6 | 4.1 | 5.4 (≈ 1.91 µg/mL) | 165 | CN(C)c1ccc(/C=N/NS(=O)(=O)c2cccc3cnccc23)cc1 [Compound 5a, (E)-N′-(4-(dimethylamino)benzylidene)isoquinoline-5-sulphonohydrazide] | – |
| 3.9 | 6.9 | > 84.5 | 186 | Cl.O=S(=O)(N/N=C/C1CCNCC1)c1cccc2cnccc12 [Compound 5h, (E)-N′-(piperidin-4-ylmethylene)isoquinoline-5-sulphonohydrazide hydrochloride] | – |
| – | – | – | 108 | CN(/N=C/c1ccccc1)S(=O)(=O)c1cccc2cnccc12 [Compound 11, (E)-N′-benzylidene-N-methylisoquinoline-5-sulphonohydrazide] | decrease in the IC50 for ROCK2 relative to 5b ([1]; N-methylated 11 versus 5b): ~1.8 fold; IC50 ([1]; 1 to 50 µM): 3.8 µM; effect on cell migration (result in words) (MDA-MB 231 cells [4]): inhibited MDA-MB 231 cell migration; also recorded: effective at inhibiting cell migration; decrease in the IC50 for ROCK1 relative to 5b ([2]; N-methylated 11 versus 5b): approximately 4 fold; IC50 ([2]; 1 to 50 µM): 3.1 µM; IKK-β inhibition (result in words) (IKK-β): none of these N-sulphonylhydrazone derivatives was able to inhibit IKK-β; LDH levels in culture medium / cytotoxicity in LDH assay (result in words) (MDA-MB 231 cells [5]): not altered; recovery percentage under acidic conditions ([6]; pH 2, after 30 min of incubation): 88%; degradation in neutral medium ([6]; pH 7.4, after 4 h): less than 20% |
| 8.1 | 1.1 | 26 (≈ 9.27 µg/mL) | 168 | O=[N+]([O-])c1ccc(/C=N/NS(=O)(=O)c2cccc3cnccc23)cc1 [Compound 5c, (E)-N′-(4-nitrobenzylidene)isoquinoline-5-sulphonohydrazide] | – |
| – | – | – | – | O=C(N/N=C/c1ccccc1)c1cccc2cnccc12 [Compound 10, (E)-N′-benzylidene isoquinoline-5-carbohydrazide] | ROCK2 inhibition (result in words) [1, 7]: completely inactive; IC50 ([1]; 1 to 50 µM): > 50 µM; ROCK1 inhibition (result in words) [2, 7]: completely inactive; IC50 ([2]; 1 to 50 µM): > 50 µM |
| 7.6 | 4.5 | > 64 | 168 | O=S(=O)(N/N=C/c1cccnc1)c1cccc2cnccc12 [Compound 5d, (E)-N′-(pyridin-3-ylmethylene)isoquinoline-5-sulphonohydrazide] | – |
| 7.3 | 2.7 | 58 (≈ 20.6 µg/mL) | > 250 | O=S(=O)(N/N=C/c1ccc(B(O)O)cc1)c1cccc2cnccc12 [Compound 5f, (E)-(4-((2-(isoquinolin-5-ylsulphonyl)hydrazono)methyl)phenyl)boronic acid] | – |
